Measured values published in US20100197650A1, “COMPOSITIONS AND METHODS OF TREATMENT COMPRISING CEFTAROLINE” (FOREST LABORATORIES HOLDINGS LTD., priority 2008, published 2010).
Converted amounts (≈) assume the structure as drawn. Where two headings read alike, the source gives them in different places.

How the values were obtained:
Enterococcus faecalis = test: MIC, broth microdilution (Example 1); format: cell-based
Outline: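 Broth microdilution per CLSI M7-A7; H. influenzae in Haemophilus Test Medium, streptococci in Mueller Hinton II Broth with 2% lysed horse blood, other organisms in Mueller Hinton II Broth. Two-fold serial dilutions; plates incubated 35° C ~20 hours, MIC read visually as growth/no-growth.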

Klebsiella pneumoniae = test: MIC, broth microdilution (Example 1); format: cell-based
Outline: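 CLSI broth microdilution with seven 2-fold dilutions per agent made in DMSO, the drug making up 5% of final well volume. H. influenzae was tested in Haemophilus Test Medium, S. pneumoniae in Mueller Hinton II broth with 2% lysed horse blood, and the others in Mueller Hinton II broth. Incubation was 35 °C for about 20 h, with visual reading.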

[1] = system: AmpC-derepressed Enterobacter cloacae; test: microbe, parasite or virus in culture; format: cell-based; conditions: for MBC / MIC: Enterobacter cloacae
P. aeruginosa = test: Susceptibility testing MIC/MBC, broth microdilution (Example 2); format: cell-based, Pseudomonas aeruginosa; conditions: for MBC / MIC: Pseudomonas aeruginosa; for MBC: read-out: MBC; for MIC: read-out: MIC
[2] = system: clinical Enterobacteriacae and P. aeruginosa isolates; test: Susceptibility testing (Example 2), summary over species; format: cell-based; conditions: selected clinical isolates, except for 4 E. cloacae
HA-MRSA [3] = test: Susceptibility testing MIC/MBC, broth microdilution (Example 3); format: cell-based, Staphylococcus aureus; conditions: for MIC: read-out: MIC; for MIC50: read-out: MIC50
Description: Two hundred clinical HA-MRSA isolates, harboring the SCCmecIV type, were evaluated for susceptibility testing. […] Four strains, including 1 hVISA and 1 VISA, characterized by population analysis profile and Macro Etest were selected for time-kill analysis.
Trypose soy agar (TSA; Difco, Detroit, Mich.) was used for colony counting.
Minimum inhibitory concentrations (MIC) and minimum bactericidal concentrations (MBC) were determined by broth microdilution for all antimicrobials, according to the Clinical and Laboratory Standards Institute (CLSI) guidelines (Clinical and Laboratory Standards Institute. 2006. Methods for Dilution Antimicrobial Susceptibility Tests for Bacteria That Grow Aerobically; Approved Standard. 7th ed. Wayne, Pa.: CLSI). MBC values were determined by plating of aliquots of 5 μL from clear wells onto TSA. All susceptibility testing were performed in duplicate.

HA-MRSA [4] = test: Time-kill curves at ¼ and ½ MIC (Example 3); format: cell-based, Staphylococcus aureus; conditions: drug alone at ½ MIC, the 2 vancomycin-susceptible MRSA, followed by regrowth
Description: Four randomly selected HA-MRSA isolates were evaluated in time-kill experiments, using a starting inoculum at ˜10^6 CFU/mL and antimicrobials at ¼ and ½ MIC. Regimens included ceftaroline, vancomycin and tobramycin alone or combination of tobramycin with ceftaroline or vancomycin. […] Additivity, antagonism and indifference were defined as <2 but >1 log10 kill, >1 log10 growth and ±1 log kill, respectively.
Differences between regimens were analyzed by T-test or ANOVA with Tukey's post hoc test. […] A P value <0.05 was considered significant.

[5] = E. cloacae (10) clinical isolates
[6] = P. aeruginosa (20) clinical isolates
[7] = HA-MRSA isolates of origin Blood
[8] = HA-MRSA isolates of origin Lung
[9] = HA-MRSA isolates of origin Skin
[10] = HA-MRSA isolates of origin Unknown
[11] = HA-MRSA isolates of origin Urine

CCO/N=C(\C(=O)N[C@@H]1C(=O)N2C(C(=O)[O-])=C(Sc3nc(-c4cc[n+](C)cc4)cs3)CS[C@H]12)c1nsc(N)n1 [Ceftaroline]
MIC (Enterococcus faecalis; E. faecalis 0796 (VSE)): 4 µg/mL | MIC (Enterococcus faecalis; Enterococcus faecalis, E. faecalis 0795 (VSE), read-out: MIC): 8 µg/mL | MIC (Enterococcus faecalis; Enterococcus faecalis, E. faecalis 0796 (VSE), read-out: MIC): 2 µg/mL | MIC (Enterococcus faecalis; Enterococcus faecalis, VRE, E. faecalis 0847 (VRE), read-out: MIC): 2 µg/mL | MIC (Enterococcus faecalis; Enterococcus faecalis, VRE, E. faecalis 0849 (VRE), read-out: MIC): 4 µg/mL | MIC (Klebsiella pneumoniae; K. pneumoniae 1461): 0.5 µg/mL | MIC (Klebsiella pneumoniae; Klebsiella pneumoniae, K. pneumoniae 1340, read-out: MIC): 0.12 µg/mL | MIC (Klebsiella pneumoniae; Klebsiella pneumoniae, K. pneumoniae 1461, read-out: MIC): 0.25 µg/mL | MIC (Klebsiella pneumoniae; Klebsiella pneumoniae, K. pneumoniae 1468 (ESBL), read-out: MIC): 32 µg/mL | MBC range [1, 5]: 0.125 to 1024 µg/mL | MIC range [1, 5]: 0.125 to 512 µg/mL | MBC ([1]; E. cloacae isolate no. 4073): 512 µg/mL (≈ 847 µM) | MIC ([1]; E. cloacae isolate no. 4073): 256 µg/mL (≈ 423 µM) | MBC ([1]; E. cloacae isolate no. 5420): 128 µg/mL (≈ 212 µM) | MIC ([1]; E. cloacae isolate no. 5420): 64 µg/mL (≈ 106 µM) | MBC range (P. aeruginosa; [6]): 16 to 256 µg/mL | MIC range (P. aeruginosa; [6]): 8 to 256 µg/mL | MBC (P. aeruginosa; P. aeruginosa isolate no. 796): 32 µg/mL (≈ 52.9 µM) | MIC (P. aeruginosa; P. aeruginosa isolate no. 796): 16 µg/mL (≈ 26.5 µM) | MBC (P. aeruginosa; P. aeruginosa isolate no. 956): 256 µg/mL (≈ 423 µM) | MIC (P. aeruginosa; P. aeruginosa isolate no. 956): 128 µg/mL (≈ 212 µM) | MBC (P. aeruginosa; P. aeruginosa isolate no. 1019): 64 µg/mL (≈ 106 µM) | MIC (P. aeruginosa; P. aeruginosa isolate no. 1019): 32 µg/mL (≈ 52.9 µM) | MBC (P. aeruginosa; P. aeruginosa isolate no. 1037): 16 µg/mL (≈ 26.5 µM) | MIC (P. aeruginosa; P. aeruginosa isolate no. 1037): 8 µg/mL (≈ 13.2 µM) | MIC range [2]: 2 to 1024 µg/mL | % of Isolates with MBC 0.5 μg/mL (HA-MRSA [3]; 200 HA-MRSA isolates): 22% | % of Isolates with MBC 1 μg/mL (HA-MRSA [3]; 200 HA-MRSA isolates): 62.5% | % of Isolates with MBC 2 μg/mL (HA-MRSA [3]; 200 HA-MRSA isolates): 15.5% | % of Isolates with MIC 0.25 μg/mL (HA-MRSA [3]; 200 HA-MRSA isolates): 4% | % of Isolates with MIC 0.5 μg/mL (HA-MRSA [3]; 200 HA-MRSA isolates): 35.5% | % of Isolates with MIC 1 μg/mL (HA-MRSA [3]; 200 HA-MRSA isolates): 57% | % of Isolates with MIC 2 μg/mL (HA-MRSA [3]; 200 HA-MRSA isolates): 1.5% | MBC range (HA-MRSA [3]; 200 HA-MRSA isolates): 0.5 to 2 µg/mL | MIC range (HA-MRSA [3]; 200 HA-MRSA isolates): 0.25 to 2 µg/mL | MBC range (HA-MRSA [3]; [7]): 0.5 to 2 µg/mL | MIC range (HA-MRSA [3]; [7]): 0.25 to 2 µg/mL | MBC range (HA-MRSA [3]; [8]): 0.5 to 2 µg/mL | MIC range (HA-MRSA [3]; [8]): 0.25 to 2 µg/mL | MBC range (HA-MRSA [3]; [9]): 0.5 to 2 µg/mL | MIC range (HA-MRSA [3]; [9]): 0.5 to 2 µg/mL | MBC range (HA-MRSA [3]; [10]): 0.5 to 2 µg/mL | MIC range (HA-MRSA [3]; [10]): 0.5 to 1 µg/mL | MBC range (HA-MRSA [3]; [11]): 0.5 to 2 µg/mL | MIC range (HA-MRSA [3]; [11]): 0.5 to 1 µg/mL | MBC (HA-MRSA [3]; Staphylococcus aureus, MRSA / VISA, HA-MRSA isolate R2303 (VISA), read-out: MBC): 0.25 µg/mL (≈ 0.413 µM) | MIC (HA-MRSA [3]; Staphylococcus aureus, MRSA / VISA, HA-MRSA isolate R2303 (VISA)): 0.25 µg/mL (≈ 0.413 µM) | MIC50 (HA-MRSA [3]; Staphylococcus aureus, MRSA, 200 HA-MRSA isolates): 1 µg/mL (≈ 1.65 µM) | MBC (HA-MRSA [3]; Staphylococcus aureus, MRSA, HA-MRSA isolate R3804, read-out: MBC): 0.25 µg/mL (≈ 0.413 µM) | MIC (HA-MRSA [3]; Staphylococcus aureus, MRSA, HA-MRSA isolate R3804): 0.25 µg/mL (≈ 0.413 µM) | MBC (HA-MRSA [3]; Staphylococcus aureus, MRSA, HA-MRSA isolate R3875 (hVISA), read-out: MBC): 1 µg/mL (≈ 1.65 µM) | MIC (HA-MRSA [3]; Staphylococcus aureus, MRSA, HA-MRSA isolate R3875 (hVISA)): 1 µg/mL (≈ 1.65 µM) | MBC (HA-MRSA [3]; Staphylococcus aureus, MRSA, HA-MRSA isolate R4039, read-out: MBC): 0.5 µg/mL (≈ 0.827 µM) | MIC (HA-MRSA [3]; Staphylococcus aureus, MRSA, HA-MRSA isolate R4039): 0.5 µg/mL (≈ 0.827 µM) | MBC (HA-MRSA [3]; Staphylococcus aureus, MRSA, HA-MRSA isolates of origin Blood, read-out: MBC50): 1 µg/mL (≈ 1.65 µM) | MIC50 (HA-MRSA [3]; Staphylococcus aureus, MRSA, HA-MRSA isolates of origin Blood): 1 µg/mL (≈ 1.65 µM) | MBC (HA-MRSA [3]; Staphylococcus aureus, MRSA, HA-MRSA isolates of origin Lung, read-out: MBC50): 1 µg/mL (≈ 1.65 µM) | MIC50 (HA-MRSA [3]; Staphylococcus aureus, MRSA, HA-MRSA isolates of origin Lung): 1 µg/mL (≈ 1.65 µM) | MBC (HA-MRSA [3]; Staphylococcus aureus, MRSA, HA-MRSA isolates of origin Skin, read-out: MBC50): 1 µg/mL (≈ 1.65 µM) | MIC50 (HA-MRSA [3]; Staphylococcus aureus, MRSA, HA-MRSA isolates of origin Skin): 1 µg/mL (≈ 1.65 µM) | MBC (HA-MRSA [3]; Staphylococcus aureus, MRSA, HA-MRSA isolates of origin Unknown, read-out: MBC50): 1 µg/mL (≈ 1.65 µM) | MIC50 (HA-MRSA [3]; Staphylococcus aureus, MRSA, HA-MRSA isolates of origin Unknown): 1 µg/mL (≈ 1.65 µM) | MBC (HA-MRSA [3]; Staphylococcus aureus, MRSA, HA-MRSA isolates of origin Urine, read-out: MBC50): 1 µg/mL (≈ 1.65 µM) | MIC50 (HA-MRSA [3]; Staphylococcus aureus, MRSA, HA-MRSA isolates of origin Urine): 0.5 µg/mL (≈ 0.827 µM) | MIC90 (HA-MRSA [3]; Staphylococcus aureus, 200 HA-MRSA isolates, read-out: MIC90): 1 µg/mL (≈ 1.65 µM) | kill at 4 hours (HA-MRSA [4]): 1.5 log10
